Assays:
[1] = Japanese Kokai No. 104,735/1978, cited from earlier work; for immunosuppressive effect: particularly cell-mediated
PHA reaction = assay: PHA reaction, 50% inhibitory concentration (immunosuppressive action in vitro); assay type: cell-based; conditions: ester form as emulsion with polyoxyethylene-polyoxypropylene copolymer, salt form as aqueous solution; for IC50: read-out: Concentration for 50% inhibition
Description: In accordance with the PHA method by Cooparband et al. [The Journal of Immunology, 109, (1), 154 (1972)], the compounds of this invention were tested for the 50% inhibitory concentration in the PHA reaction. Also, the effect of IRA (Immunoregulatory α-globulin) obtained according to the method of Occhino et al. [The Journal of Immunology, 110, (3), 685 (1973)] was shown as comparative test data. Among these compounds, those of the ester form were used in emulsion employing a copolymer of polyoxyethylene-polyoxypropylene having molecular weight of 8350 as a surfactant, and those of the salt form were used as aqueous solutions.

[2] = test system: carrageenin edema of hind footpad; assay: Carrageenin hind footpad edema in rats (anti-inflammatory action); assay type: in vivo; conditions: 50 mg/kg intraperitoneally 1 h before carrageenin, 4 hours after inoculation
Description: Using rats, each of derivatives of 7-hydroxycholesterol and of 7-ketocholesterol shown in Table 2 was administered intraperitoneally to 5 rats of each group in a dose of 50 mg/kg (physiologically isotonic aqueous solution with a concentration of 2.0% by weight), and one hour after the administration, each 0.05 ml of 1% aqueous carrageenin solution as an inflammation-causing substance was subcutaneously inoculated at the hind footpad.
After 4 hours from the inoculation of carrageenin, the size of edema caused on the footpad was measured by means of a volume differential meter to compare with that of the control group which was given to the physiological sodium chloride aqueous solution.
The ester samples administered were in the form of emulsion employing a phospholipid as a surfactant, and the salt samples were in the form of physiologically isotonic solution.

rats = assay: Acute toxicity test in rats; assay type: in vivo; conditions: intraperitoneal, 250, 500, 750 or 1000 mg/kg, 5-days' observation
Description: Acute toxicity tests were performed using rats, each group consisting of 5 rats each weighing approximately 200 g, on 7-ketocholesteryl hydrogen succinate, 7-ketocholesteryl hydrogen phthalate, sodium 7-ketocholesteryl succinate, ammonium 7-ketocholesteryl succinate, 7-hydroxycholesteryl hydrogen succinate, 7β-hydroxycholesteryl hydrogen phthalate, sodium 7-hydroxycholesteryl succinate, and sodium 7β-hydroxycholesteryl phthalate. Each of the compounds of salt type was made into a physiologically isotonic aqueous solution, and each of the compounds of ester type was dispersed with a surfactant and by ultrasonic wave treatment to give a uniform dispersion. Thereafter, each of them was administered intraperitoneally in an amount of 250 mg/kg, 500 mg/kg, 750 mg/kg, or 1000 mg/kg. After 5-days' observation, no rat died.

CC(C)CCC[C@@H](C)[C@H]1CC[C@H]2[C@@H]3C(O)C=C4C[C@@H](O)CC[C@]4(C)[C@H]3CC[C@]12C (stereo partly shown) [7-hydroxycholesterol]
anti-inflammatory effect [1]: effective | immunosuppressive effect [1]: effective as immunosuppressive agent

CC(C)CCC[C@@H](C)[C@H]1CC[C@H]2[C@@H]3C(O)C=C4C[C@@H](OC(=O)CCC(=O)O)CC[C@]4(C)[C@H]3CC[C@]12C (stereo partly shown) [7-hydroxycholesteryl hydrogen succinate]
IC50 (PHA reaction): 3 µg/mL | Swelling rate of edema ([2]; control 82, 50 mg/kg): 29% | death of rats (acute toxicity) (rats): no rat died

CC(C)CCC[C@@H](C)[C@H]1CC[C@H]2[C@@H]3C(=O)C=C4C[C@@H](O)CC[C@]4(C)[C@H]3CC[C@]12C [7-ketocholesterol]
anti-inflammatory effect [1]: effective | immunosuppressive effect [1]: effective as immunosuppressive agent

CC(C)CCC[C@@H](C)[C@H]1CC[C@H]2[C@@H]3C(=O)C=C4C[C@@H](OC(=O)c5ccccc5C(=O)O)CC[C@]4(C)[C@H]3CC[C@]12C [7-ketocholesteryl hydrogen phthalate]
IC50 (PHA reaction): 4 µg/mL | Swelling rate of edema ([2]; control 82): 28% | death of rats (acute toxicity) (rats): no rat died

CC(C)CCC[C@@H](C)[C@H]1CC[C@H]2[C@@H]3C(=O)C=C4C[C@@H](OC(=O)CCC(=O)O)CC[C@]4(C)[C@H]3CC[C@]12C [7-ketocholesteryl hydrogen succinate]
IC50 (PHA reaction): 4 µg/mL | Swelling rate of edema ([2]; control 82): 30% | death of rats (acute toxicity) (rats): no rat died

CC(C)CCC[C@@H](C)[C@H]1CC[C@H]2[C@@H]3[C@@H](O)C=C4C[C@@H](OC(=O)c5ccccc5C(=O)O)CC[C@]4(C)[C@H]3CC[C@]12C [7β-hydroxycholesteryl hydrogen phthalate]
IC50 (PHA reaction): 3 µg/mL | Swelling rate of edema ([2]; control 82, 50 mg/kg): 30% | death of rats (acute toxicity) (rats): no rat died

CC(C)CCC[C@@H](C)[C@H]1CC[C@H]2[C@@H]3C(O)C=C4C[C@@H](OC(=O)CCC(=O)O)CC[C@]4(C)[C@H]3CC[C@]12C (stereo partly shown) [Sodium 7-hydroxycholesteryl succinate, sodium 7-hydroxycholesteryl succinate]
Concentration for 50% inhibition (PHA reaction): 3 µg/mL | Swelling rate of edema ([2]; control 82, 50 mg/kg): 28% | death of rats (acute toxicity) (rats): no rat died

CC(C)CCC[C@@H](C)[C@H]1CC[C@H]2[C@@H]3[C@@H](O)C=C4C[C@@H](OC(=O)c5ccccc5C(=O)O)CC[C@]4(C)[C@H]3CC[C@]12C [Sodium 7β-hydroxycholesteryl phthalate]
Concentration for 50% inhibition (PHA reaction): 4 µg/mL | Swelling rate of edema ([2]; control 82, 50 mg/kg): 31% | death of rats (acute toxicity) (rats): no rat died

— patent publication US4304726A, “Process for the preparation of cholesterol derivatives” (The Green Cross Corporation, priority 1979, dated 1981)
